Results from US6790447B1, “Peptides for treatment of autoimmune diseases” (priority 1994, dated 2004).

How the values were obtained:
[1] = test system: uveitis; assay: Uveitogenicity after immunization with the peptides; assay type: in vivo; details: after immunization of objects with the peptides
Excerpt: Of these peptides B27PD and PDSAg are uveitogenic, i.e., after immunization of objects with the peptides they develop uveitis.

[2] = test system: IRBP induced uveitis; assay: IRBP-induced uveitis after oral administration of antigens (oral tolerance); assay type: in vivo, Lewis rats; details: induction with IRBP, oral feeding; for clinical symptoms / clinical score for uveitis reduced to: compared to maximal disease in PBS-fed group
Excerpt: (§1) Due to animal protection laws, the experiments were terminated three to four days after the last animals in the positive control groups diseased.
(§2) The histological evaluation consists of a grading of inflammatory signs in the tissue and destruction of the retina, the clinical grading refers to inflammatory signs of the conjunctiva and the anterior segment of the eye, which can be observed readily and are not necessarily correlated with the visual acuity.

[3] = test system: S-antigen-induced uveitis; assay: S-antigen-induced uveitis after oral administration of antigens (oral tolerance); assay type: in vivo, Lewis rats; details: induction with S-antigen; for clinical symptoms reduced to: oral administration, compared to group fed control protein (ovalbumin), peptides 200 μg, proteins 1 mg, three doses every other day; for uveitis reduced by (histological evaluation): oral feeding, compared to ovalbumin fed control groups
Excerpt: as §1, §2

A-L-N-E-D-L-R-S-W-T-A-A-D-T (ALNEDLRSWTAADT) [B7PD, an irrelevant control peptide]
uveitogenic properties [1]: does not have any uveitogenic properties

A-L-N-E-D-L-S-S-W-T-A-A-D-T (ALNEDLSSWTAADT) [B27PD, 14 mer peptide of the invention]
uveitogenic properties [1]: uveitogenic
clinical symptoms / clinical score for uveitis reduced to [2]: 75%
clinical symptoms reduced to [3]: 16%
uveitis reduced by (histological evaluation) [3]: 57%

F-L-G-E-L-T-S-S-E-V-A-T-E-V (FLGELTSSEVATEV) [PDSAg]
uveitogenic properties [1]: uveitogenic
therapeutic properties [2]: no therapeutic properties
clinical symptoms reduced to [3]: 9%
uveitis reduced by (histological evaluation) [3]: 14%

IRBP: interphotoreceptor-retinoid-binding protein, retinal protein
clinical symptoms / clinical score for uveitis reduced to [2]: 25%
